# Laboratory results from article PMC9356275, “A quantitative high-throughput screen identifies compounds that lower expression of the SCA2-and ALS-associated gene ATXN2” (The Journal of Biological Chemistry, 2022).
# Where “and” joins values, the source holds several entries; their conditions need not be identical. Equal entries are not always repeated. Structures can show the parent of a compound that is named as a salt. Where two headings read alike, the source gives them in different places.
# Legend:
# Format in all cases: cell-based, human
# ATXN2-luc [1] = test: MSSR pilot screen: ATXN2-luc luciferase assay (Bright-Glo) in H2 cells, single 10 μM dose; settings: for SD from mean (ATXN2-luc, Z-score): H2 cells, single dose (title: 10 μM compound), overnight; for ¦Score/1SD¦: absolute score divided by 1SD (0.891 or 0.9)
# H2 and S1 cells = test: Paired MTT viability assay, average of H2 and S1 cells (1 and 10 uM); settings: Homo sapiens
# Description: (§1) Supplement mmc2.xlsx, sheet "43 annotated compounds"
# ATXN2-luc [2] = test: MSSR hit retest: ATXN2-luc luciferase assay, average of H2 and S1 cells (1 and 10 uM); settings: Homo sapiens; for activity at 1 µM: read-out: H2&S1 ave luc 1uM; for activity at 10 µM: head line r3 10uM; for activity at 10 µM / activity: read-out: H2&S1 ave luc 10uM
# Description: as §1
# ATXN2-luc [3] = test: NCATS qHTS (LOPAC pilot, primary and confirmation): ATXN2-luc in S2 cells, 1536-well, Steady-Glo; settings: for Curve Class: LOPAC library (1,280 compounds) screening optimization, signed sub-classes (-1.1, -2.2, -3 ...)
# Experimental: We next performed a pilot screen assay to optimize the 1536-well qHTS using S2 cells. […] Cytotoxicity was determined using a multiplexed viability assay (CellTiter-Fluor, a fluorescence-based viability assay using Gly-Phe-7-amino-4-trifluoromethylcoumarin substrate).
# CellTiter-Fluor was used to determine compound effect on cell viability, and Steady-Glo was used to measure luciferase in a multiplexed assay.
# The primary assay was conducted at the NCATS NIH Chemical Genomics Center laboratory. About 4 μl of S2 cell suspension in phenol red–free DMEM was dispensed into wells of 1536-well assay plates. […] Next, SteadyGlo luciferase substrate detection reagent (3 μl) was added to each well and incubated for an additional 5 min at room temperature. Luminescence was then measured on the ViewLux imager equipped with clear filters using a 2 s exposure. All screening operations were performed on a fully integrated robotic system (Kalypsys) containing one RX-130 and two RX-90 anthropomorphic robotic arms (Stäubli). Vehicle-only plates, with DMSO being pin-transferred to columns 5 to 48, were inserted uniformly at the beginning and the end of each library in order to monitor and record any shifts in assay performance.
# ATXN2-luc [4] = test: Secondary assays: ATXN2-luc in S2 and H2 cells, 12 doses, Bright-Glo; settings: Homo sapiens; H2 and S2 values used as replicates, 24 h; read-out: IC50 for lowering ATXN2-luc
# Experimental: The values for H2 and S2 were used as replicates to calculate IC50s and to assess cell viability.
# Compounds were plated at 2× concentrations in phenol red–free DMEM in 25 μl in 384-well plates with each compound dose plated in triplicate. An equal volume of S2, H2, or SC cells (24,000 cells/well) suspended in phenol red–free DMEM with 10% fetal bovine serum and 1× penicillin/streptomycin were added. Cells were grown 24 h and then assayed first by using the CellTiter-Fluor reagent (20 μl) followed by the addition of Bright-Glo (65 μl) luciferase assay, using a multimode plate reader (Beckman; DT880). Values were reported as the mean ± SD with n = 3. IC50s were determined by the Hill coefficient method using an online tool (https://www.aatbio.com/tools/ic50-calculator).
# [5] = pilot screen at 10 µM compound, H2 cells expressing ATXN2-luc
# [6] = 1 uM compound, read-out: H2&S1 ave MTT 1uM
# [7] = 10 uM compound, read-out: H2&S1 ave MTT 10uM
# [8] = 1 uM compound, average of H2 and S1 cells
# [9] = read-out: H2&S1 ave MTT 1uM, 1 uM compound
# [10] = read-out: H2&S1 ave MTT 10uM, 10 uM compound
# [11] = Homo sapiens, LOPAC library screening optimization, logarithm of AC50 (negative values), read-out: Log AC50 (converted)
# [12] = Homo sapiens, LOPAC library screening optimization, read-out: AC50
# [13] = LOPAC library screening optimization, curve-fit parameter
# [14] = LOPAC library screening optimization, logarithm of AC50 (negative values)
# [15] = LOPAC library screening optimization, read-out: AC50
structure (smiles),measurement,setting,value
C[C@@H]1O[C@@H](O[C@H]2CC[C@]3(C=O)[C@H]4CC[C@]5(C)[C@@H](C6=CC(=O)OC6)CC[C@]5(O)[C@@H]4CC[C@]3(O)C2)[C@H](O)[C@H](O)[C@H]1O [CONVALLATOXIN],"SD from mean (ATXN2-luc, Z-score)",ATXN2-luc [1],-3.689 SD
same,SD from mean (pilot screen),ATXN2-luc [1]; pilot screen,-3.689 SD
same,SD from mean (pilot screen),ATXN2-luc [1]; [5],-3.689
same,¦Score/1SD¦,ATXN2-luc [1]; pilot screen,4.10
same,viability at 1 µM,H2 and S1 cells; [6],62.2%
same,viability at 10 µM,H2 and S1 cells; [7],70%
same,activity at 1 µM,ATXN2-luc [2]; [8],12%
same,activity at 10 µM,ATXN2-luc [2]; average of H2 and S1 cells,11%
CO[C@H]1C[C@H](O[C@H]2CC[C@]3(C=O)[C@H]4CC[C@]5(C)[C@@H](C6=CC(=O)OC6)CC[C@]5(O)[C@@H]4CC[C@]3(O)C2)O[C@H](C)[C@H]1O [CYMARIN],"SD from mean (ATXN2-luc, Z-score)",ATXN2-luc [1],-4.099 SD
same,SD from mean (pilot screen),ATXN2-luc [1]; pilot screen,-4.099 SD
same,SD from mean (pilot screen),ATXN2-luc [1]; [5],-4.099
same,¦Score/1SD¦,ATXN2-luc [1]; pilot screen,4.55
same,viability at 1 µM,H2 and S1 cells; [9],54.2%
same,viability at 10 µM,H2 and S1 cells; [10],59.3%
same,activity at 1 µM,ATXN2-luc [2],14%
same,activity,ATXN2-luc [2],16%
CC(C)=CCc1c(O)cc2occ(-c3ccc4c(c3)OCO4)c(=O)c2c1O [DERRUBONE],"SD from mean (ATXN2-luc, Z-score)",ATXN2-luc [1],-3.621 SD
same,SD from mean (pilot screen),ATXN2-luc [1]; pilot screen,-3.621 SD
same,SD from mean (pilot screen),ATXN2-luc [1]; [5],-3.621
same,¦Score/1SD¦,ATXN2-luc [1]; pilot screen,4.02
same,viability at 1 µM,H2 and S1 cells; [6],107%
same,viability at 10 µM,H2 and S1 cells; [7],101%
same,activity at 1 µM,ATXN2-luc [2]; [8],11%
same,activity at 10 µM,ATXN2-luc [2]; average of H2 and S1 cells,15%
C[C@H]1O[C@@H](O[C@H]2[C@@H](O)C[C@H](O[C@H]3[C@@H](O)C[C@H](O[C@H]4CC[C@@]5(C)[C@H](CC[C@@H]6[C@@H]5CC[C@]5(C)[C@@H](C7=CC(=O)OC7)CC[C@]65O)C4)O[C@@H]3C)O[C@@H]2C)C[C@H](O)[C@@H]1O [DIGITOXIN],"SD from mean (ATXN2-luc, Z-score)",ATXN2-luc [1],-4.100 SD
same,SD from mean (pilot screen),ATXN2-luc [1]; pilot screen,-4.100 SD
same,SD from mean (pilot screen),ATXN2-luc [1]; [5],-4.100
same,¦Score/1SD¦,ATXN2-luc [1]; pilot screen,4.56
same,viability at 1 µM,H2 and S1 cells; [9],34.3%
same,viability at 10 µM,H2 and S1 cells; [10],49.1%
same,activity at 1 µM,ATXN2-luc [2],27%
same,activity,ATXN2-luc [2],19%
C[C@]12CC[C@H](O)C[C@H]1CC[C@@H]1[C@@H]2CC[C@]2(C)[C@@H](C3=CC(=O)OC3)CC[C@]12O [Digitoxigenin],"SD from mean (ATXN2-luc, Z-score)",ATXN2-luc [1],-3.629 SD
same,SD from mean (pilot screen),ATXN2-luc [1]; pilot screen,-3.629 SD
same,SD from mean (pilot screen),ATXN2-luc [1]; [5],-3.629
same,¦Score/1SD¦,ATXN2-luc [1]; pilot screen,4.07
same,viability at 1 µM,H2 and S1 cells; [6],81.6%
same,viability at 10 µM,H2 and S1 cells; [7],74.8%
same,activity at 1 µM,ATXN2-luc [2]; [8],38%
same,activity at 10 µM,ATXN2-luc [2]; average of H2 and S1 cells,13%
C[C@]12CC[C@H](O)C[C@H]1CC[C@@H]1[C@@H]2C[C@@H](O)[C@]2(C)[C@@H](C3=CC(=O)OC3)CC[C@]12O [Digoxigenin],"SD from mean (ATXN2-luc, Z-score)",ATXN2-luc [1],-3.264 SD
same,SD from mean (pilot screen),ATXN2-luc [1]; pilot screen,-3.264 SD
same,SD from mean (pilot screen),"ATXN2-luc [1]; pilot screen, H2 cells expressing ATXN2-luc, single dose printed as 10 μM compound",-3.264
same,¦Score/1SD¦,ATXN2-luc [1]; pilot screen,3.66
same,viability at 1 µM,H2 and S1 cells; [6],60.4%
same,viability at 10 µM,H2 and S1 cells; [7],31.6%
same,activity at 1 µM,ATXN2-luc [2]; [8],90%
same,activity at 10 µM,ATXN2-luc [2]; average of H2 and S1 cells,22%
CC[C@H]1CN2CCc3cc(OC)c(OC)cc3[C@@H]2C[C@@H]1C[C@H]1NCCc2cc(OC)c(OC)cc21 [Emetine dihydrochloride],"SD from mean (ATXN2-luc, Z-score)",ATXN2-luc [1],-4.840 SD
same,SD from mean (pilot screen),ATXN2-luc [1]; pilot screen,-4.840 SD
same,SD from mean (pilot screen),ATXN2-luc [1]; [5],-4.840
same,¦Score/1SD¦,ATXN2-luc [1]; pilot screen,5.43
same,viability at 1 µM,H2 and S1 cells; [6],59.7%
same,viability at 10 µM,H2 and S1 cells; [7],58.1%
same,activity at 1 µM,ATXN2-luc [2]; [8],18%
same,activity at 10 µM,ATXN2-luc [2]; average of H2 and S1 cells,19%
CC(=O)O[C@H]1CC[C@@]2(C)[C@H](CC[C@@H]3[C@@H]2CC[C@]2(C)[C@@H](C4=CC(=O)OC4)[C@@H](OC(C)=O)C[C@]32O)C1 [GITOXIGENIN DIACETATE],"SD from mean (ATXN2-luc, Z-score)",ATXN2-luc [1],-4.261 SD
same,SD from mean (pilot screen),ATXN2-luc [1]; pilot screen,-4.261 SD
same,SD from mean (pilot screen),ATXN2-luc [1]; [5],-4.261
same,¦Score/1SD¦,ATXN2-luc [1]; pilot screen,4.73
same,viability at 1 µM,H2 and S1 cells; [9],39.7%
same,viability at 10 µM,H2 and S1 cells; [10],40.3%
same,activity at 1 µM,ATXN2-luc [2],27%
same,activity,ATXN2-luc [2],21%
C=C[C@H]1C[N@@]2CC[C@H]1C[C@H]2[C@H](O)c1ccnc2ccc(OC)cc12 [Quinine sulfate],AC50,ATXN2-luc [3]; [11],35.5 µM
same,AC50,ATXN2-luc [3]; [12],35.5 µM
same,Efficacy,ATXN2-luc [3]; [13],-70.489
same,Inf Activity,ATXN2-luc [3]; [13],-66.665
CC(C)NC[C@@H](O)c1ccc(O)c(O)c1 [S(+)-Isoproterenol (+)-bitartrate],AC50,ATXN2-luc [3]; [11],31.6 µM
same,AC50,ATXN2-luc [3]; [12],31.6 µM
same,Efficacy,ATXN2-luc [3]; [13],-77.2877
same,Inf Activity,ATXN2-luc [3]; [13],-79.7998
CNCC[C@H](Oc1ccc(C(F)(F)F)cc1)c1ccccc1 [S-(+)-Fluoxetine hydrochloride],AC50,ATXN2-luc [3]; [11],14.1 µM
same,AC50,ATXN2-luc [3]; [12],14.1 µM
same,Curve Class,ATXN2-luc [3],-2.2
same,Log AC50,ATXN2-luc [3]; [14],-4.8
same,AC50,ATXN2-luc [3]; [15],15.8 µM
C[C@@H]1O[C@@H](O[C@H]2C[C@@H](O)[C@]3(CO)[C@@H]4[C@@H](O)C[C@]5(C)[C@H](C6=CC(=O)OC6)CC[C@@]5(O)[C@H]4CC[C@@]3(O)C2)[C@H](O)[C@H](O)[C@@H]1O.O.O.O.O.O.O.O.O [Strophantine octahydrate],AC50,ATXN2-luc [3]; [11],0.0891 µM
same,AC50,ATXN2-luc [3]; [12],0.0891 µM
same,Efficacy,ATXN2-luc [3]; [13],-95.9071
same,Inf Activity,ATXN2-luc [3]; [13],-89.7119
same,"SD from mean (ATXN2-luc, Z-score)",ATXN2-luc [1],-3.624 SD
Nc1nc(=S)c2ncn([C@@H]3O[C@H](CO)[C@@H](O)[C@H]3O)c2[nH]1 [Thioguanosine],AC50,ATXN2-luc [3]; [11],3.55 µM
same,AC50,ATXN2-luc [3]; [12],3.55 µM
same,Efficacy,ATXN2-luc [3]; [13],-64.1845
same,Inf Activity,ATXN2-luc [3]; [13],-62.8466
CNCC[C@@H](Oc1ccccc1C)c1ccccc1 [Tomoxetine],AC50,ATXN2-luc [3]; [11],28.2 µM
same,AC50,ATXN2-luc [3]; [12],28.2 µM
same,Curve Class,ATXN2-luc [3],-2.2
same,Efficacy,ATXN2-luc [3]; [13],-86.2041
same,Inf Activity,ATXN2-luc [3]; [13],-86.6862
C[C@H](N)CN1CCc2ccc(Br)cc21 [VER-3323 hemifumarate salt],AC50,ATXN2-luc [3]; [11],11.2 µM
same,AC50,ATXN2-luc [3]; [12],11.2 µM
same,Curve Class,ATXN2-luc [3],-2.2
same,Log AC50,ATXN2-luc [3]; [14],-4.8
same,AC50,ATXN2-luc [3]; [15],15.8 µM
C[C@@H]1O[C@@H](O[C@H]2C[C@@H](O)[C@]3(CO)[C@H]4[C@H](O)C[C@]5(C)[C@@H]([C@H]6COC(=O)C6)CC[C@]5(O)[C@@H]4CC[C@]3(O)C2)[C@H](O)[C@H](O)[C@H]1O [dihydroouabain],Hill Coef,ATXN2-luc [3]; [13],3.0654 and 2.7202 and 1.8851 and 1.6604
CC(C)c1cc(-c2n[nH]c(=O)n2-c2ccc3c(ccn3C)c2)c(O)cc1O [ganetespib],IC50,ATXN2-luc [4],0.03 µM
